We go through 8 compounds from patent publication US20080249077A1, “17.Beta.-Fluoromethoxycarbonyl-Androst-4-En-3-One Compounds With a 17.Alpha.-Carbonate Sustituent” (priority 2005, published 2008).

One assay addresses T1, glucocorticoid receptor (Homo sapiens, UniProt P04150).
T1 construct: A549 cells stably transfected with a reporter gene; endogenous in cells; host or cells: A549 cells
T1 sequence (P04150 1-777): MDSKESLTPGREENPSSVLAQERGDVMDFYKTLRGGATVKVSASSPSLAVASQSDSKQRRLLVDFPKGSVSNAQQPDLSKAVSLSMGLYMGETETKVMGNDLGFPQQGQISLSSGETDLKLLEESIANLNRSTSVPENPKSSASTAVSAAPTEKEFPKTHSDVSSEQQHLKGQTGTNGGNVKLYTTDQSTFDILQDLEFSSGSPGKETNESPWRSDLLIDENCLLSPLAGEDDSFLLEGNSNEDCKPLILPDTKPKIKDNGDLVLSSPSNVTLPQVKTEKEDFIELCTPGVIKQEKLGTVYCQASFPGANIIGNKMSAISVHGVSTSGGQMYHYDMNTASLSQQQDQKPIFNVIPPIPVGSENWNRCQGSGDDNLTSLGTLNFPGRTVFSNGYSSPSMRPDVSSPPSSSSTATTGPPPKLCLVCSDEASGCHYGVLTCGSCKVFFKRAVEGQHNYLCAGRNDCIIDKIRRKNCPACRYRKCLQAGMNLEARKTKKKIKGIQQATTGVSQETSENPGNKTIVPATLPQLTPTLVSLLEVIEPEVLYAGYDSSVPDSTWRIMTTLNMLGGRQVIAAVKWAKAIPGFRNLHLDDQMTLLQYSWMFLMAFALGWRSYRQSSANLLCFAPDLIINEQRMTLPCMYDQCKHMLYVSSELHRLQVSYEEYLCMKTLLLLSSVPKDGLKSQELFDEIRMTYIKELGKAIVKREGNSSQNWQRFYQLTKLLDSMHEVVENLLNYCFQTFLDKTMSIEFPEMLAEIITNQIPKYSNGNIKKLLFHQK
Kind of assay: Assay for transrepression activity of the glucocorticoid agonists (NF-κB responsive ELAM promoter-sPAP reporter, TNF-stimulated A549 cells). Conditions: compound 1 hour at 37° C., then TNF 10 ng/ml for 16 hours, read-out: pIC50 (transrepression) (converted). The class given is cell-based. The protocol:
Assay for Transrepression Activity of the Glucocorticoid Agonists
A549 cells stably transfected with a reporter gene containing the NF-κB responsive elements from the ELAM gene promoter coupled to sPAP (secreted alkaline phosphatase) are treated with test compounds at appropriate doses for 1 hour at 37° C. The cells are then stimulated with tumour necrosis factor (TNF, 10 ng/ml) for 16 hours, at which time the amount of alkaline phosphatase produced is measured by a standard colourimetric assay. Dose response curves were constructed from which EC50 values were estimated.
On to `C[C@@H]1C[C@H]2[C@@H]3C[C@H](F)C4=CC(=O)C=C[C@]4(C)[C@@]3(F)[C@@H](O)C[C@]2(C)[C@@]1(OC(=O)OC1CCCC(C)(C)C1)C(=O)OCF` (single isomer, unassigned) [Example 19A, Fluoromethyl(6α,11β,16α,17α)-17-({[(3,3-dimethylcyclohexyl)oxy]carbonyl}oxy)-6,9-difluoro-11-hydroxy-16-methyl-3-oxoandrosta-1,4-diene-17-carboxylate], for which the IC50 is less than 0.1 nM. Same read-out and setting: in the case of `CC(OC(=O)O[C@]1(C(=O)OCF)[C@H](C)C[C@H]2[C@@H]3C[C@H](F)C4=CC(=O)C=C[C@]4(C)[C@@]3(F)[C@@H](O)C[C@@]21C)C1CCCC1` (stereo partly drawn) [Example 21A, Fluoromethyl(6α,11β,16α,17α)-17-({[(1-cyclopentylethyl)oxy]carbonyl}oxy)-6,9-difluoro-11-hydroxy-16-methyl-3-oxoandrosta-1,4-diene-17-carboxylate] it was less than 0.1 nM; in that of `CC(OC(=O)O[C@]1(C(=O)OCF)[C@H](C)C[C@H]2[C@@H]3C[C@H](F)C4=CC(=O)C=C[C@]4(C)[C@@]3(F)[C@@H](O)C[C@@]21C)C(C)(C)C` (single isomer, unassigned) [Example 23A, Fluoromethyl(6α,11β,16α,17α)-6,9-difluoro-11-hydroxy-16-methyl-3-oxo-17-({[(1,2,2-trimethylpropyl)oxy]carbonyl}oxy)androsta-14-diene-17-carboxylate], less than 0.1 nM.

The target of the next assay is T1, glucocorticoid receptor. Kind of assay: Assay for transactivation activity of the glucocorticoid agonists (MMTV-LTR renilla luciferase reporter in A549 cells). The class given is cell-based. Conditions: compound 6 hour at 37° C., read-out: maximal response relative to Dexamethasone (100%) (transactivation). The protocol: Assay for Transactivation Activity of the Glucocorticoid Agonists
The functional assay based on that described by R. J. H. Austin et al., Eur Resp J. (2002), 20, 1386-1392 measures the ability of compounds to directly transactivate gene expression. A549 cells stably transfected with a reporter gene containing the glucocorticoid responsive region of the mouse mammary tumour virus long terminal repeat (MMTV-LTR) coupled to renilla luciferase were treated with test compounds at appropriate doses for 6 hour at 37° C. The amount of luciferase activity present within the cells is then determined by measuring the light emitted following incubation with a suitable substrate. Dose response curves were constructed from which EC50 values were estimated and from which maximal responses are calculated relative to Dexamethasone (100%).
(In general: In a reporter assay the amount or activity of a reporter protein is the signal.)
`C[C@@H]1C[C@H]2[C@@H]3C[C@H](F)C4=CC(=O)C=C[C@]4(C)[C@@]3(F)[C@@H](O)C[C@]2(C)[C@@]1(OC(=O)OC1CCCC(C)(C)C1)C(=O)OCF` (stereo partly drawn) [Example 19, Fluoromethyl(6α,11β,16α,17α)-17-({[(3,3-dimethylcyclohexyl)oxy]carbonyl}oxy)-6,9-difluoro-11-hydroxy-16-methyl-3-oxoandrosta-1,4-diene-17-carboxylate]: the Emax is less than 25%. In the case of `C[C@@H]1C[C@H]2[C@@H]3C[C@H](F)C4=CC(=O)C=C[C@]4(C)[C@@]3(F)[C@@H](O)C[C@]2(C)[C@@]1(OC(=O)OC1CCCCCCC1)C(=O)OCF` [Example 16, Fluoromethyl(6α,11β,16α,17α)-17-{[(cyclooctyloxy)carbonyl]oxy}-6,9-difluoro-11-hydroxy-16-methyl-3-oxoandrosta-1,4-diene-17-carboxylate], the Emax was less than 25%. Same read-out and setting: in the case of `CC[C@H]1CC[C@H](OC(=O)O[C@]2(C(=O)OCF)[C@H](C)C[C@H]3[C@@H]4C[C@H](F)C5=CC(=O)C=C[C@]5(C)[C@@]4(F)[C@@H](O)C[C@@]32C)CC1` (relative stereo) [Example 37, Fluoromethyl(6α,11β,16α,17α)-17-({[(trans-4-ethylcyclohexyl)oxy]carbonyl}oxy)-6,9-difluoro-11-hydroxy-16-methyl-3-oxoandrosta-1,4-diene-17-carboxylate] it was less than 25%; in that of `CC1CCCCC1OC(=O)OC1(C(=O)OCF)C(C)CC2C3CC(F)C4=CC(=O)C=CC4(C)C3(F)C(O)CC21C` (stereo not drawn) [Example 10, Fluoromethyl(6α,11β,16α,17α)-6,9-difluoro-11-hydroxy-16-methyl-17-[({[(1SR,2RS)-2-methylcyclohexyl]oxy}carbonyl)oxy]-3-oxoandrosta-1,4-diene-17-carboxylate], less than 25%; in that of `C[C@@H]1C[C@H]2[C@@H]3C[C@H](F)C4=CC(=O)C=C[C@]4(C)[C@@]3(F)[C@@H](O)C[C@]2(C)[C@@]1(OC(=O)O[C@H]1C[C@H]2CC[C@]1(C)C2(C)C)C(=O)OCF` [Example 28, Fluoromethyl(6α,11β,16α,17α)-6,9-difluoro-11-hydroxy-16-methyl-3-oxo-17-[({[(1R,2S,4R)-1,7,7-trimethylbicyclo[2.2.1]hept-2-yl]oxy}carbonyl)oxy]androsta-1,4-diene-17-carboxylate], less than 25%.
